Tests used:
[1] = tested on: LN686, FADU, and OSC19 cells; assay: Cell counting in 3D-mimic 2D culture (PCP or UAP); format: cell-based, human
Experimental: Cells were cultured in 96-well poly(poly-2-hydroxyethyl methacrylate [HEMA])-coated plates (PCPs) or ultra-low attached plates (UAPs). Control IgG1 (25 μg/ml), cixutumumab (25 μg/ml), PP2 (10 μM), and an integrin β3 neutralizing antibody B3A (10 μg/ml) were diluted in culture media containing 10% FBS or IGF-1 and treated alone or in combination. To examine the effect on cancer cell proliferation, a 3-(4,5-dimethylthiazol-2-yl)-2,5-diphenyltetrazolium bromide (MTT) or 3-(4,5-dimethylthiazol-2-yl)-5-(3-carboxymethoxyphenyl)-2-(4-sulfophenyl)-2H-tetrazolium (MTS) assay was performed, and to evaluate the effect on anchorage-independent colony formation, a soft agar colony formation assay was performed according to a method in our previous report (Morgillo et al., 2006).
The PCPs were prepared according to a previously reported method (Fukazawa et al., 1995). In brief, tissue culture plates were collated twice with poly-(HEMA) (10 mg/ml in 95% ethanol) at 37° C. and then washed with phosphate-buffered saline (PBS) several times.
Since cell growth rates could be different under each set of culture conditions, the present inventor counted the cells at distinct culture periods and depicted the results in FIG. 6. The values were represented as mean±standard deviation (SD), and a statistical significance was evaluated using two-sided Student t test (*P<0.05; **P<0.01).

LN686 tumor xenografts = assay: LN686 xenograft, cixutumumab and Ad-CSK; format: in vivo, mouse; details: after 21 days
Experimental: LN686, UMSCC38, H226B, or A549m cells (1×10^6 cells/mouse in 100 μl of PBS) were subcutaneously injected into nude mice at a single dorsal flank site (6-9 mice per group). For HNSCC patient-derived tumor xenografts, primary human tumor specimens were collected from an untreated patient who underwent lobectomies of squamous carcinoma of the oral cavity. The tumors were cut into small pieces with a size of 2-mm^3 and subcutaneously implanted into the nude mice (one piece per mouse). At 0 day (the time point when tumor size reached to 80 to 100 mm^3) mice were treated with cixutumumab (10 mg/kg, i.p., once or twice a week), Ad-EV (3×10^11 pfu, intratumoral injection, once a week), Ad-CSK (3×10^11 pfu, intratumoral injection, once a week), siCon, siintegrin β3 ([…], i.p., once a week), dasatinib (20 mg/kg, oral gavage, daily), cixutumumab and Ad-CSK, or cixutumumab and dasatinib.
To further determine the effects of inhibiting integrin β3/Src signaling on antitumor activities of cixutumumab, an adenovirus expressing c-Src tyrosine kinase that phosphorylates the autoinhibitory tyrosine 527 was used (Yeatman, 2004). […]

[2] = tested on: Src and FAK phosphorylation; assay: Fluorescent immunostaining of pSrc and pFAK; format: cell-based, human
From the text: The present inventors reconfirmed the western blot analysis results in which Src and FAK phosphorylation was increased due to cixutumumab in the presence of IGF-1 by fluorescent immunostaining. Cultured LN686 cells in UAPs with cixutumumab alone or in combination with IGF-1 or an integrin β3 neutralizing antibody, treated with IGF-1 to fix, and then Src and FAK phosphorylation was confirmed. […] Such an action of the cixutumumab was abolished by the IGF-1 or integrin β3 neutralizing antibody, and therefore it was reconfirmed that the action of cixutumumab for inducing the Src and FAK phosphorylation was mediated by integrin β3 in the presence of IGF-1.
According to the Previous study, a modified integrin β3 expression vector was prepared by substituting an amino acid sequence (CYDMKTTC, residues 177-184) of the integrin β3 essential for the IGF-1 bond with an amino acid sequence (CTSEQNC, residues 187-193) of integrin β1 at a corresponding position. An empty vector or a modified integrin β3 expression vector was transfected into FADU cells. These cells were plated, and cultured along with cixutumumab (25 μg/ml) alone or in combination with IGF-1 or an integrin β3 neutralizing antibody for 4 h. After the culture, IGF-1 […] was treated for 1 hour, and the cells were recovered, washed with PBS, and fixed with 10% formalin for 2 h. […]

HNSCC and NSCLC cells = assay: Soft agar colony formation assay; format: cell-based, human
Experimental: To evaluate the effect on anchorage-independent colony formation, cells were suspended in 0.4% agar in media at a density of 2×10^3 cells per well, replated in 12-well plates that have been pre-coated with 0.8% agar, and cultured in growth medium containing cixutumumab (25 μg/ml) for 2-6 weeks. Cells were stained with 0.1% Coomassie brilliant blue in PBS, and the colonies >0.2 mm in diameter were counted. Independent experiments were repeated three times.
Because cells grown in the 3D environment might differ from cells growing in PCPs and UAPs, the present inventor evaluated the effects of cixutumumab on cell growth in soft agar, a 3D culture system. 10 HNSCC and 6 NSCLC cells were cultured in soft agar for 4 to 6 weeks in the presence or absence of cixutumumab (25 μg/ml).

## cixutumumab: humanized mAb targeting IGF-1R, provided by ImClone Systems
[1]; LN686 and FADU cells
  growth rates vs control cells: no difference
[1]; OSC19 cells
  growth rates vs control cells: significantly slower growth rates
LN686 tumor xenografts
  mean tumor weight compared to a control group: 96%
[2]; LN686 cells adhered to ECM-coated coverslip
  IGF-1-induced Src and FAK phosphorylation in cell membrane: did not suppress or somewhat increased
[2]; LN686 cells in UAPs, in the presence of IGF-1
  Src and FAK phosphorylation (immunostaining): enhanced phosphorylation
HNSCC and NSCLC cells; OSC19 and A549 cells, 3D system
  colony formation in soft agar: concentration-dependent inhibitory effects
HNSCC and NSCLC cells; sensitive NSCLC and HNSCC lines vs resistant and mildly sensitive lines, 25 μg/ml, 4 to 6 weeks
  colonies formed in soft agar: significantly fewer colonies

Source: patent US20140341922A1, “Method for Overcoming Tolerance to Targeted Anti-Cancer Agent” (SUN R&DB Foundation, priority 2011, published 2014)
